Assays:
[1] = test system: dogs diagnosed with arthritis or chronic or degenerative joint disease; assay: Owner-reported mobility of dogs with arthritis or chronic or degenerative joint disease, daily oral dosing, placebo-controlled; assay type: in vivo, dog
Procedure: The experiments below were performed on dogs after the informed consent of their owners was obtained. […] The specified compound was administered orally once a day with the dog's meal. […] The owners reported weekly any change in the ability of their dog to stand up, walk, run, climb and descend stairs, get on and off a bed, sofa, or chair, get into and out of a car, their limping and behavior.

rats = conditions: >2.35 mg/l air aerosol, mostly (~80%) particles smaller than 7 μm; cited from earlier work
rat [2] = conditions: cited from earlier work
carp = conditions: 0.3-3 ppm; cited from earlier work
Chinese hamster = conditions: cited from earlier work
rat [3] = conditions: cited from earlier work; remark: listed apart in the source

CC(C(=O)O)c1ccc2c(c1)[nH]c1ccc(Cl)cc12 (stereo not shown) [Rimadyl®, reference compound]
change in dog's condition ([1]; Example 9, 85 lb Labrador retriever, arthritis of the hips, Rimadyl alone before Compound 1): slightly improved the dog's condition

calcium salt of the monoethyl ester of (((3,5-bis(1,1-dimethylethyl)-4-hydroxyphenyl)methyl) phosphonic acid [Compound 1]
deaths after 4 hour inhalation (rats): no deaths | oral LD50 (rat [2]): exceeds 6000 mg/kg | bioconcentration (accumulation) (carp): No bioconcentration (accumulation) was detected | oral LD50 (Chinese hamster): exceeds 2000 mg/kg | change in dog's condition ([1]; Example 7, 33 lb Kelpie-mix, about 10 mg daily oral capsule, 4th week): condition continued to improve | change in dog's condition ([1]; Example 7, 33 lb Kelpie-mix, about 10 mg daily oral capsule, after 2 weeks): moved smoothly, had less difficulty getting out of the car or off the sofa, ran better and more often, and was more active | change in dog's condition ([1]; Example 7, 33 lb Kelpie-mix, about 10 mg daily oral capsule, after 3 weeks): freely getting off the bed, down from the sofa and out of the car | change in dog's condition ([1]; Example 7, 33 lb Kelpie-mix, arthritis of shoulders and elbow, about 10 mg daily oral capsule, after 1 week): got down the sofa and out of the car more easily | change in dog's condition ([1]; Example 8, 13 lb miniature Poodle, about 10 mg daily oral capsule, after 3 weeks): ran frequently and jumped up on the sofa without hesitation | change in dog's condition ([1]; Example 8, 13 lb miniature Poodle, about 10 mg daily oral capsule, after 4 weeks): climbing and running freely | change in dog's condition ([1]; Example 8, 13 lb miniature Poodle, unknown disease, about 10 mg daily oral capsule, after two weeks): climbed stairs with less hesitation and ran occasionally | change in dog's condition ([1]; Example 9, 85 lb Labrador retriever, about 15 mg Compound 1 daily capsule and Rimadyl, after 1 week): stood up without assistance and limped less | change in dog's condition ([1]; Example 9, 85 lb Labrador retriever, about 15 mg Compound 1 daily capsule and Rimadyl, after 3 weeks): started to move faster, then to run | change in dog's condition ([1]; Example 9, 85 lb Labrador retriever, about 15 mg Compound 1 daily capsule and Rimadyl, after two weeks): moved faster and was not bothered by its hips | change in dog's condition ([1]; Example 9, 85 lb Labrador retriever, about 15 mg Compound 1 daily capsule, Rimadyl discontinued, 4th week): got up and moved rapidly with ease and it's running improved | change in dog's condition ([1]; Example 11, 62 lb Australian cattle dog, about 10 mg Compound 1 daily capsule, after 2 weeks): stood well, limped less, and climbed the 3 stairs to and from the house | change in dog's condition ([1]; Example 11, 62 lb Australian cattle dog, about 10 mg Compound 1 daily capsule, after 3 weeks): trotted and climbed 5 stairs | change in dog's condition ([1]; Example 11, 62 lb Australian cattle dog, about 10 mg Compound 1 daily capsule, after 4 weeks): condition was further improved | change in dog's condition ([1]; Example 11, 62 lb Australian cattle dog, after 5 months untreated, about 10 mg Compound 1 daily capsule, after one week): stood longer, walked, and enjoyed the outdoors | number of dogs for which improvement was evident ([1]; of 5 dogs given Compound 1): 4 dogs | intraperitoneal LD50 (rat [3]): 662 mg/kg
